Measured values as given in ChEMBL document CHEMBL1136241 (Bioorg Med Chem Lett, 2003).

Key:
[1] = target: T1, D(2) dopamine receptor (Homo sapiens, UniProt P14416); assay: biochemical
[2] = target: T2, D(4) dopamine receptor (Homo sapiens, UniProt P21917)
T2 sequence (P21917 whole entry): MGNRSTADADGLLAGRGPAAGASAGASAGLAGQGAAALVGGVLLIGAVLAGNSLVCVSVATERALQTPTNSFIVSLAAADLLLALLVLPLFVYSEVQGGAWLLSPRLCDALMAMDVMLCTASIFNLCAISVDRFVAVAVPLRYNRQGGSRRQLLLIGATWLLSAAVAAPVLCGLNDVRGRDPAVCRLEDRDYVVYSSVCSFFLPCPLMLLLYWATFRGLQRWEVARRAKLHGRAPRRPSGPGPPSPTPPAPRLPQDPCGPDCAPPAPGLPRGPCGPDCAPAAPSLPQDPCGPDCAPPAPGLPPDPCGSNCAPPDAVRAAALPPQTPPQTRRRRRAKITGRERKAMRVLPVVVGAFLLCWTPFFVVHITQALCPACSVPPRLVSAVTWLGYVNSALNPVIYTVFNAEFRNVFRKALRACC

[3] = target: T1, D(2) dopamine receptor; assay: biochemical; remark: listed apart in the source
[4] = target: T3, D(3) dopamine receptor (Homo sapiens, UniProt P35462); assay: biochemical
T3 sequence (P35462 whole entry): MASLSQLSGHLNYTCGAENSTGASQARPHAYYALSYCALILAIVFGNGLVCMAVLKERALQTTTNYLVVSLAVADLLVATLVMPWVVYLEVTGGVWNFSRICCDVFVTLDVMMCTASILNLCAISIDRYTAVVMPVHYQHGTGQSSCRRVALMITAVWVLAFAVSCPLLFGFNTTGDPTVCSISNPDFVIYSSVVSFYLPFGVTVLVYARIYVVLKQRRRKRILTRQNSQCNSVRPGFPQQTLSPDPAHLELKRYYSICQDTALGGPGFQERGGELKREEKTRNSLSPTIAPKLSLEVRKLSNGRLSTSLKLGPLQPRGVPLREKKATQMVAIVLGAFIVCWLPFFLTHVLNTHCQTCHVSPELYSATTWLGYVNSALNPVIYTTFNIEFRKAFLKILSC

[5] = target: D(1A) dopamine receptor (Bos taurus, UniProt Q95136)
D(1A) dopamine receptor, sequence (Q95136 whole entry): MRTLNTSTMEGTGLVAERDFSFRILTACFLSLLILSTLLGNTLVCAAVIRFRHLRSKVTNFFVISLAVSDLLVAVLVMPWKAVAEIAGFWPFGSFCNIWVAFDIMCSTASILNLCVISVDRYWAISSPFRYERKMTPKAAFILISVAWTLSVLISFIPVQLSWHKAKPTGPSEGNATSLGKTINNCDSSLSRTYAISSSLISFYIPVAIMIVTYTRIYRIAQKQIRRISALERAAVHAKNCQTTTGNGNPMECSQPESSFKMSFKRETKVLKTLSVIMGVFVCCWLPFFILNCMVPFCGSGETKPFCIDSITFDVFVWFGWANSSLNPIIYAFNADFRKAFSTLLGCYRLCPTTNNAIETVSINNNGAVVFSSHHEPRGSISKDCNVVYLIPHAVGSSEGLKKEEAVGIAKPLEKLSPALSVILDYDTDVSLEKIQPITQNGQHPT

[6] = target: T1, D(2) dopamine receptor; assay: Ability to displace [3H]spiperone [0.5 nM (Kd=0.2-0.45 nM)] from human cloned dopamine receptor D2S expressed in CHO cells at 0.5 nM concentration; assay type: cell-based
[7] = target: T3, D(3) dopamine receptor; details: cho

T1 sequence (P14416 whole entry): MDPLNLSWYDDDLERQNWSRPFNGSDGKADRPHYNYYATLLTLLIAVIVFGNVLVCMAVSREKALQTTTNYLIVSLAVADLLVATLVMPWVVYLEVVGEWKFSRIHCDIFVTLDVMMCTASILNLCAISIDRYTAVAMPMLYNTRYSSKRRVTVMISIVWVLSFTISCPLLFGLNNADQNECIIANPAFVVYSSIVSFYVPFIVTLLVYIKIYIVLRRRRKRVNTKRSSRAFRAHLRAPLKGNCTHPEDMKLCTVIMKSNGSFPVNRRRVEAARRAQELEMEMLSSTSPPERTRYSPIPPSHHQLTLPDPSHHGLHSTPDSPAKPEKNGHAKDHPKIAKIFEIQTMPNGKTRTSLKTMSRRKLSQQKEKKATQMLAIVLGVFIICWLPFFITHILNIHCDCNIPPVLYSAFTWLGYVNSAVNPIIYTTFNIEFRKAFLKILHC

Row | SMILES | Ki [1] [nM] | Ki [2] [nM] | Ki [3] [nM] | Ki [4] [nM] | Ki [5] [nM] | Ki [6] [nM] | Ki [7] [nM]
1 | CNc1cc(OC)c(C(=O)N[C@H]2CCN(Cc3ccccc3)C[C@@H]2C)cc1Cl (stereo in doubt; 3b) | 54 | 4.7 | 39 | 510 | 8200 |  | 
2 | COc1c(C(=O)N[C@H]2CN(Cc3ccccc3)C[C@@H]2C)cc(Br)c2ccccc12 (stereo in doubt; 3d) | 1000 | 17 | 700 | 740 | 8400 |  | 
3 | CNc1cc(OC)c(C(=O)N[C@H]2CN(Cc3ccccc3)C[C@H]2C)cc1Cl (stereo in doubt; 3e) | 3.7 | 0.23 | 3 | 100 | 4100 |  | 
4 | COc1c(C(=O)N[C@H]2CN(Cc3ccccc3)C[C@H]2C)cc(Br)c2ccccc12 (stereo in doubt) | 290 | 27 |  | 130 | 4000 | 170 | 
5 | COc1cc(N)c(Cl)cc1C(=O)N[C@H]1CCN(Cc2ccccc2)C[C@@H]1C (stereo in doubt; 3a) | 470 | 35 | 340 | 2200 | 19000 |  | 
6 | COc1cc(N)c(Cl)cc1C(=O)N[C@H]1CCCN(Cc2ccccc2)C1 (stereo in doubt; 5a) | 1600 | 200 | 1100 | 2900 | 17000 |  | 
7 | CNc1cc(OC)c(C(=O)N[C@H]2CN(Cc3ccccc3)C[C@@H]2C)cc1Cl (stereo in doubt) | 15 | 4.3 | 11 | 27 | 5300 |  | 
8 | COc1c(C(=O)N[C@H]2CN(Cc3ccccc3)C[C@H]2C)cc(Br)c2ccccc12 (stereo in doubt; 3f) | 200 | 2.7 | 135 | 390 | 4700 |  | 
9 | COc1cc(N)c(Cl)cc1C(=O)N[C@H]1CCCN(Cc2ccccc2)C1 (stereo in doubt) | 7900 | 530 | 4200 | 8700 | 13000 |  | 
10 | CNc1cc(OC)c(C(=O)N[C@H]2CCN(Cc3ccccc3)C[C@@H]2C)cc1Cl (stereo in doubt) | 8 | 1.6 | 6.4 | 13 | 4400 |  | 
11 | CNc1cc(OC)c(C(=O)NC2CCN(Cc3ccccc3)CC2)cc1Cl | 24 | 8.3 | 15 | 160 | 6800 |  | 
12 | CNc1cc(OC)c(C(=O)N[C@H]2CN(Cc3ccccc3)C[C@@H]2C)cc1Cl (stereo in doubt; 3c) | 21 | 0.77 | 19 | 220 | 12000 |  | 
13 | COc1c(C(=O)N[C@@H]2CCN(Cc3ccccc3)C2)cc(C#Cc2ccccc2)c2ccccc12 (stereo in doubt) | 7700 | 1500 | 5500 |  | 3300 |  | 1000
14 | COc1cc(N)c(Cl)cc1C(=O)N[C@H]1CCN(Cc2ccccc2)C[C@@H]1C (stereo in doubt) | 8.6 | 7.4 | 7.4 | 20 | 7100 |  | 
15 | COc1c(C(=O)N[C@@H]2CCN(Cc3ccccc3)C2)cc(C#Cc2ccccc2)c2ccccc12 (stereo in doubt; 3j) | 6400 | 500 | 4000 | 1000 | 2800 |  | 
16 | CNc1cc(OC)c(C(=O)N[C@H]2CCCN(Cc3ccccc3)C2)cc1Cl (stereo in doubt; 5b) | 170 | 25 | 130 | 560 | 10000 |  | 
17 | CNc1cc(OC)c(C(=O)N[C@H]2CN(Cc3ccccc3)C[C@H]2C)cc1Cl (stereo in doubt) | 2.3 | 0.84 | 2 | 1.8 | 4700 |  | 
18 | CNc1cc(OC)c(C(=O)N[C@H]2CCCN(Cc3ccccc3)C2)cc1Cl (stereo in doubt) | 250 | 64 | 210 | 1500 | 5600 |  | 
19 | COc1c(C(=O)N[C@H]2CN(Cc3ccccc3)C[C@@H]2C)cc(Br)c2ccccc12 (stereo in doubt) | 490 | 59 | 260 | 140 | 4200 |  | 

Further lines, results first:

Row | Ki [1] [nM] | Ki [2] [nM] | Ki [3] [nM] | Ki [4] [nM] | Ki [5] [nM] | Ki [6] [nM] | Ki [7] [nM] | SMILES
20 | 60 | 1.2 | 23 | 34 | 3000 |  |  | COc1c(C(=O)N[C@@H]2CCN(Cc3ccccc3)C2)cc(I)c2ccccc12 (stereo in doubt; 3h)
21 | 190 | 2.5 | 82 | 86 | 3300 |  |  | C#Cc1cc(C(=O)N[C@@H]2CCN(Cc3ccccc3)C2)c(OC)c2ccccc12 (stereo in doubt; 3i)
22 | 1300 | 78 | 870 | 1000 | 2900 |  |  | COc1c(C(=O)NC[C@@H]2CCN(Cc3ccccc3)C2)cc(Br)c2ccccc12 (stereo in doubt)
23 | 500 | 7 | 250 | 79 | 6100 |  |  | C#Cc1cc(C(=O)N[C@@H]2CCN(Cc3ccccc3)C2)c(OC)c2ccccc12 (stereo in doubt)
24 | 180 | 5 |  | 250 | 7200 | 130 |  | COc1c(C(=O)N[C@@H]2CCN(Cc3ccccc3)C2)cc(Br)c2ccccc12 (stereo in doubt; 3g)
25 | 150 | 21 | 150 | 84 | 7400 |  |  | COc1c(C(=O)N[C@@H]2CCN(Cc3ccccc3)C2)cc(Br)c2ccccc12 (stereo in doubt)
26 | 2500 | 610 | 2800 | 1000 | 2100 |  |  | COc1c(C(=O)NCC[C@@H]2CCN(Cc3ccccc3)C2)cc(Br)c2ccccc12 (stereo in doubt)
27 | 640 | 130 | 420 | 410 | 2100 |  |  | COc1c(C(=O)NC[C@@H]2CCN(Cc3ccccc3)C2)cc(Br)c2ccccc12 (stereo in doubt; 3k)
28 | 190 | 3.3 | 70 | 33 | 6100 |  |  | COc1c(C(=O)N[C@@H]2CCN(Cc3ccccc3)C2)cc(I)c2ccccc12 (stereo in doubt)
29 | 2000 | 500 | 1900 | 580 | 1700 |  |  | COc1c(C(=O)NCC[C@@H]2CCN(Cc3ccccc3)C2)cc(Br)c2ccccc12 (stereo in doubt; 3l)
